In one assay the target is T1, CCKA (Cavia porcellus, UniProt Q63931).
T1 construct: The pancreatata were removed from male guinea-pigs (200-300g; Dunkin Hartley); from tissue; host or cells: pancreas membranes of male Dunkin Hartley guinea-pigs
T1 sequence (Q63931 1-430): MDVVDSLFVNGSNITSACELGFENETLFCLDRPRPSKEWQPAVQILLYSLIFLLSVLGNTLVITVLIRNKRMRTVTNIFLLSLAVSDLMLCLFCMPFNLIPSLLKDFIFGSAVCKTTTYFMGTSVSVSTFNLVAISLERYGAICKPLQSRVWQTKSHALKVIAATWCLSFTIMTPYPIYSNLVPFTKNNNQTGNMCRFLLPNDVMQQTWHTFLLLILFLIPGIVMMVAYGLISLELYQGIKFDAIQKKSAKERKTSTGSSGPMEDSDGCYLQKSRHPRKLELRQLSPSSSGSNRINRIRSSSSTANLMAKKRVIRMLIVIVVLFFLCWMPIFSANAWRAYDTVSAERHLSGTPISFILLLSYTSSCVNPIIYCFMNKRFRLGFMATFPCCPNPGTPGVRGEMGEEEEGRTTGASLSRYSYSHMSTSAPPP
The assay can be described thus: CCKA binding assay in guinea-pig pancreas membranes. Particulars: [125I]-CCK8(S) 200pM; for Ki: containing 0.375 µM PD134,308, read-out: CCKA pKi (converted); for CCKA pKi: containing 0.375 µM PD134,308. The protocol:
The compounds of the examples were also tested in a CCKÅ binding assay as follows:
The pancreatata were removed from male guinea-pigs (200-300g; Dunkin Hartley) and placed in ice-cold HEPES buffer (pH 7.2 @ 21 ± 3° ). The pancreatata were homogenised in 40 ml ice-cold HEPES buffer using a polytron (Brinkmann, PT10, setting 10) 4 x 1 second.
The homogenate was centrifuged at 39,800g for 15 min at 4°. The supernatant was discarded and the pellet re-suspended using a Teflon-in-glass homogeniser in 20 volumes of fresh buffer and recentrifuged as above. The final pellet was re-suspended using a Teflon-in-glass homogeniser to a tissue concentration of 1 mg.ml^-1 (original wet weight), and filtered through 500 µm pore-size Nytex mesh.
The membranes (400µl; containing 0.375 µM PD134,308) are incubated for 150 minutes at 21 ± 3° in a final volume of 0.5ml with HEPES buffer containing [^125I]-CCK8(S) (50µl; 200pM) and competing compound. Total and non-specific binding of [^125I]-CCK8 (S) are defined using 50µl of buffer and 50µl of 100nM L-364,718 respectively. The assay is terminated by rapid filtration through pre-soaked Whatman GF/B filters using a Brandell Cell Harvester. The filters were washed (3 x 3ml) with ice-cold 50mM Tris HCl (pH 7.4 at 4° ) and bound radioactivity is determined by counting (1 min) in a gamma counter.

The next assay deals with T2, gastrin (Rattus norvegicus, UniProt P30553).
T2 construct: The stomach was excised and flushed with ca. 1 ml of unbuffered physiological saline solution; from tissue; host or cells: isolated whole stomach of immature rats (33-50 g, ca. 21 days old)
T2 sequence (P30553 1-452): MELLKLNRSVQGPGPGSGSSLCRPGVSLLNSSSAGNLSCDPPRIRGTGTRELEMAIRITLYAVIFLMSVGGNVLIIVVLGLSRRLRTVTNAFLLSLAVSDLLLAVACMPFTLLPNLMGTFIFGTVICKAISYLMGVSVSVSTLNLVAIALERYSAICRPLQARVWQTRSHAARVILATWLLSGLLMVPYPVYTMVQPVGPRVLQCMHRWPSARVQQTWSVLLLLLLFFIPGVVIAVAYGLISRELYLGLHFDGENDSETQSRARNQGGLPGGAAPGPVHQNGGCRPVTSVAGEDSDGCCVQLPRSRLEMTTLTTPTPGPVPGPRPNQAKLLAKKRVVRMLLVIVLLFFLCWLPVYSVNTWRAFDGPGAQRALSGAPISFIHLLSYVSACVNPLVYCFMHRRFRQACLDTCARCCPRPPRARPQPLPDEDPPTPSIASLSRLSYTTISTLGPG
Briefly: gastrin antagonist activity in an immature rat stomach assay. The note with it: isolated immature rat stomach, cumulative pentagastrin dose-response curves, acid secretion; read-out: Gastrin pKB (converted). The protocol: The compounds of the examples were also tested for gastrin antagonist activity in an immature rat stomach assay. The procedure was as follows: The oesophagus of immature rats (33-50 g, ca. 21 days old) was ligated at the level of the cardiac sphincter and the duodenal sphincter was cannulated. The stomach was excised and flushed with ca. 1 ml of unbuffered physiological saline solution. The fundus was punctured and cannulated. A further 4-5 ml of unbuffered solution was flushed through the stomach to ensure the preparation was not leaking. […] The stomach was continuously perfused at a rate of 1 ml min^-1 with unbuffered solution gassed with 100% O2 with the perfusate passing over an internally referenced pH-electrode fixed 12 cm above the stomach. After 120 min of stabilisation the drugs were added directly to the serosal solution in the organ bath and after a further 60 min cumulative pentagastrin dose-response curves were started.

The target in a further assay is T3, CCKB receptor (Mus musculus, UniProt P56481).
T3 construct: The whole brains from male mice (CD1 22-25g; Charles River) were removed; from tissue; host or cells: cerebral cortex membranes of male CD1 mice
T3 sequence (P56481 1-453): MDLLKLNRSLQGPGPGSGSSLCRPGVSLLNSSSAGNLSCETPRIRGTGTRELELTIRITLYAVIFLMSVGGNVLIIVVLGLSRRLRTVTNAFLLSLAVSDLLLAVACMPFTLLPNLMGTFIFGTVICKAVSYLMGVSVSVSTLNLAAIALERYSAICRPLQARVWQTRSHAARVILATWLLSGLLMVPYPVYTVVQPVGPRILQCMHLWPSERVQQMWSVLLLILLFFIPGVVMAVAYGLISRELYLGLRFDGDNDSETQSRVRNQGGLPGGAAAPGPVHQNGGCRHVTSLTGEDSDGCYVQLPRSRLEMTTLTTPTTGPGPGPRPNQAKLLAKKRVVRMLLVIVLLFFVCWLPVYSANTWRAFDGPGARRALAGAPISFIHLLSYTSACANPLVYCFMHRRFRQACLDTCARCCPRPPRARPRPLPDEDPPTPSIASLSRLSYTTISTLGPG
The assay can be described thus: radioligand binding assay at the CCKB receptor in mouse cortical membranes. Particulars: [125I]-CCK8S 200pM, 150 min at 21 ± 3°C; for Ki: read-out: CCKB pKi (converted). The protocol: The compounds of the examples were tested for binding at the CCKB receptor in mouse cortical membranes by means of a radioligand binding assay. The procedure was as follows:
The whole brains from male mice (CD1 22-25g; Charles River) were removed and placed in ice-cold buffer (pH7.2 @ 21 ± 3°C) of the following composition (mM); 10 HEPES, 130 NaCl, 4.7 KCl, 5 MgCl2, 1 EDTA and containing 0.25g.l^-1 bacitracin. The cortex was dissected, weighed and homogenised in 40ml ice-cold buffer using a Teflon-in-glass homogeniser. The homogenate was centrifuged at 39,800g for 20 min at 4°C, the supernatant discarded and the pellet resuspended by homogenisation in fresh buffer. The homogenate was recentrifuged (39,800g; 20 min @ 4°C) and the final pellet was resuspended in HEPES buffer to give a tissue concentration of 2mg.ml^-1(original wet weight).
The assay was terminated by rapid filtration through pre-soaked Whatman GF/B filters using a Brandell Cell harvester. The filters were washed (3 x 3ml) with ice-cold 50mM Tris-HCl (pH7.4 @ 4°C) and bound radioactivity determined by counting (1 min.) in a gamma-counter.

As to `O=C(O)c1cc(NC(=O)[C@H](Cc2ccc(F)cc2)NC(=O)C2C3c4ccccc4C(c4ccccc43)C2C(=O)NCC23CC4CC(CC(C4)C2)C3)cc(C(=O)O)c1` (single isomer, unassigned) [Example 9, cis-7-(1S-(3,5-dicarboxyphenylaminocarbonyl) -2-(4-fluorophenyl)ethylaminocarbonyl)-8-(1-adamantanemethylaminocarbonyl) -2,3,5,6-dibenzobicyclo[2.2.2]octane], the values for the Ki at CCKA and on CCKB receptor were 398 nM and 50.1 nM, respectively. Further, the Kb on gastrin was 20 nM.

Turning to `O=C(O)c1cc(CNC(=O)[C@H](Cc2ccccc2)NC(=O)C2C3c4ccccc4C(c4ccccc43)C2C(=O)NCC23CC4CC(CC(C4)C2)C3)cc(C(=O)O)c1` (single isomer, unassigned) [Example 61, cis-7-(1S-(3,5-dicarboxyphenylmethylaminocarbonyl) -2-phenylethylaminocarbonyl) -8-(1-adamantanemethylaminocarbonyl)-2,3,5,6-dibenzobicyclo [2.2.2] octane], the values for the Ki at CCKA and on CCKB receptor were 2510 nM and 31.6 nM, respectively. In addition, the Kb on gastrin is 39.8 nM.

For the compound `O=C(O)c1cc(NC(=O)[C@H](Cc2ccccc2)NC(=O)C2C3c4ccccc4C(c4ccccc43)C2C(=O)NCc2cccc3ccccc23)cc(C(=O)O)c1` (single isomer, unassigned) [Example 33, cis-7-(1S-(3,5-dicarboxyphenylaminocarbonyl)-2-phenylethylaminocarbonyl)-8-(1-naphthalenemethylaminocarbonyl)-2,3,5,6-dibenzobicyclo[2.2.2]octane], the Ki at CCKA is 1260 nM; on CCKB receptor, 316 nM.

With `O=C(O)c1cc(NC(=O)[C@H](Cc2ccccc2)NC(=O)C2C3c4ccccc4C(c4ccccc43)C2C(=O)NCCc2c[nH]c3ccccc23)cc(C(=O)O)c1` (single isomer, unassigned) [Example 50, cis-7-(1S-(3,5-dicarboxyphenylaminocarbonyl) -2-phenylethylaminocarbonyl)-8-(3-indolylethylaminocarbonyl)-2,3,5,6-dibenzobicyclo[2.2.2] octane], the Ki at CCKA is 398 nM; on CCKB receptor, 15.8 nM.

As to `O=C(O)c1cccc(NC(=O)[C@H](Cc2cccs2)NC(=O)C2C3c4ccccc4C(c4ccccc43)C2C(=O)NCC23CC4CC(CC(C4)C2)C3)c1` (single isomer, unassigned) [Example 55, cis-7-(1S-(3-carboxyphenylaminocarbonyl)-2-(2-thiophenyl)ethylaminocarbonyl)-8-(1-adamantanemethylaminocarbonyl)-2,3,5,6-dibenzobicyclo[2.2.2]octane], the Ki at CCKA is 794 nM; on CCKB receptor, 6.31 nM.

For “cls-7-(1S-(3,5-dicarboxyphenylaminocarbonyl) -2-phenylethylaminocarbonyl) -8-(2-phenylpropylaminocarbonyl) -2,3,5,6-dibenzobicyclo[2.2.2]octane [Example 54]”, the “CCKA pKi” value at CCKA was found to be 5.8. For the same compound, the “CCKB pKi” value on CCKB receptor was 7.5.

With `O=C(O)c1ccccc1NC(=O)[C@H](Cc1ccccc1)NC(=O)C1C2c3ccccc3C(c3ccccc32)C1C(=O)NCC12CC3CC(CC(C3)C1)C2` (stereo partly drawn) [Example 45, cis-7-(1S-(2-carboxyphenylaminocarbonyl)-2-phenylethylaminocarbonyl)-8-(1-adamantane-methylaminocarbonyl) -2,3,5,6-dibenzobicyclo[2.2.2]octane], the Ki at CCKA is 1260 nM; on CCKB receptor, 200 nM.

In the case of `O=C(NCC12CC3CC(CC(C3)C1)C2)C1C2c3ccccc3C(c3ccccc32)C1C(=O)N[C@@H](Cc1ccccc1)C(=O)Nc1ccccc1` (single isomer, unassigned) [Example 22, cis-7-(1S-(phenylaminocarbonyl)-2-phenyl-ethylaminocarbonyl)-8-(1-adamantanemethylaminocarbonyl) -2,3,5,6-dibenzobicyclo[2.2.2]octane], the figures for the Ki at CCKA and at CCKB receptor were 1260 nM and 3980 nM, respectively.

As to `O=C(O)c1cccc(NC(=O)[C@H](Cc2cccs2)NC(=O)C2C3c4ccccc4C(c4ccccc43)C2C(=O)NCC23CC4CC(CC(C4)C2)C3)c1` (single isomer, unassigned) [Example 56], the Ki on CCKA was 1000 nM; on CCKB receptor, 25.1 nM.

For the compound `O=C(O)c1cc(NC(=O)[C@H](Cc2ccccc2)NC(=O)C2C3c4ccccc4C(c4ccccc43)C2C(=O)NCCc2c[nH]c3ccccc23)cc(C(=O)O)c1` (single isomer, unassigned) [Example 51, cis-7-(1S-(3,5-dicarboxyphenylaminocarbonyl) -2-phenylethylaminocarbonyl)-8-(3-indolylethylaminocarbonyl) -2,3,5,6-dibenzobicyclo [2.2.2]octane], the Ki on CCKA was 1580 nM; on CCKB receptor, 79.4 nM.

“cis-7-(1S-(3,5-dicarboxyphenylaminocarbonyl) -2-phenylethylaminocarbonyl)-8-(2-thiophenylmethylaminocarbonyl)-2,3,5,6-dibenzobicyclo[2.2.2] octane [Example 52]”: the “CCKA pKi” value at CCKA was 6.8. Also, on CCKB receptor, the “CCKB pKi” value is given as 7.3.

The values above are taken from patent EP0719251B1, “BICYCLO (2.2.2) OCTANE DERIVATIVES CHOLECYSTOKININ AND/OR GASTRIN ANTAGONISTS” (JAMES BLACK FOUNDATION LIMITED, priority 1993, dated 1995).
